Experimental data published in US10646479B2, “Use of N-(4-iodobenzoylamino)-5-ethyl-1,2,3,6-tetrahydropyridine as a treatment for cancer” (Florida A&M University, priority 2018, dated 2020).

Tests used:
Type in all cases: cell-based, human
[1] = tested on: MCF-7 cell line; assay: CellTiter-Glo (CTG) luminescent cell viability assay, MCF-7 cells; details: for IC50: MCF-7 estrogen receptor positive breast cancer cells, CTG viability
Procedure: (§1) This compound was evaluated against three types of cancer cells: Ishikawa, MDA-MB-231, and MCF-7 using the CellTiter-Glo (CTG) luminescent cell viability assay. Ishikawa cell line is an endometrial adenocarcinoma isolated from a person. MDA-MB-231 is a triple negative breast cancer cell line isolated from a person. MCF-7 is an estrogen receptor positive breast cancer cell line isolated from a person.

[2] = tested on: MDA-MB-231 cell line; assay: CellTiter-Glo (CTG) luminescent cell viability assay, MDA-MB-231 cells; details: for IC50: MDA-MB-231 triple negative breast cancer cells, CTG viability
Procedure: as §1

[3] = tested on: Ishikawa cell line; assay: CellTiter-Glo (CTG) luminescent cell viability assay, Ishikawa cells; details: for IC50: Ishikawa endometrial adenocarcinoma cells, CTG viability
Procedure: as §1

Row | IC50 [1] | IC50 [2] | IC50 ([1]; Homo sapiens, MCF7) | IC50 ([2]; Homo sapiens) | Molecule | IC50 [3] | activity compared to Tamoxifen and 4-Hydroxytamoxifen ([1]; MCF-7 cell line) | activity compared to Tamoxifen and 4-Hydroxytamoxifen ([2]; MDA-MB-231 cell line) | IC50 ([3]; Homo sapiens) | activity compared to Tamoxifen and 4-Hydroxytamoxifen ([3]; Ishikawa cell line)
1 | 6.78 µM | 23.1 µM |  |  | 4-Hydroxytamoxifen [reference compound] | 26.4 µM |  |  |  | 
2 |  |  | 1.25 µM | 5.67 µM | CCC1=CCCN(NC(=O)c2ccc(I)cc2)C1 [EH-1-40, N-(4-iodobenzoylamino)-5-ethyl-1,2,3,6-tetrahydropyridine] |  | better activity | better activity | 2.93 µM | better activity
